US10517926B2, “Oligopeptide having proinflammatory cytokine secretion-inhibiting activity” (Osaka University, priority 2015, dated 2019)

Columns and labels:
[1] = system: MG6 cells; assay: Proinflammatory cytokine secretion inhibition, LPS-stimulated microglial cells (ELISA); type: cell-based, mouse; conditions: for proinflammatory cytokine secretion-inhibiting activity on the MG6 cells: same test as Example 2
Procedure: MG6 cells (mouse-derived microglial cell line) were cultured in a DMEM medium (+4% FBS) containing MHP1 or MHP2 (final concentration: 50 or 100 μg/ml), and LPS (final concentration: 2 ng/ml) for 24 hours by a standard method. After culture, the concentrations of IL-6 and TNFα in the medium were measured by the ELISA method. In the Examples of the present application, the ELISA method was performed using a kit (Quantikine ELISA Mouse TNF-α or Quantikine ELISA Mouse IL-6, produced by R&D Systems). The results are shown in FIG. 1 (IL-6) and FIG. 2 (TNFα).
The proinflammatory cytokine secretion-inhibiting effect was examined in the same as in Example 2, except that the final concentration of MHP1 was set to 100 μg/ml, and that RANKL full-length protein was used at a final concentration of 10 ng/ml or 100 ng/ml as the comparison target.

[2] = system: osteoclast precursor cells; assay: Osteoclast differentiation, Osteoclast Culture Kit (TRAP and nuclear staining); type: cell-based; conditions: with M-CSF 50 ng/ml; MHP1 30, 50 or 100 μg/ml or RANKL protein 50 ng/ml; FIG. 13
Procedure: Osteoclast Culture Kit V-2 (OSC33, produced by Cosmo Bio Co., Ltd.) was used. According to the manual of the kit, culture of osteoclast precursor cells was started in the presence of M-CSF (final concentration: 50 ng/ml) in the A and B groups, and in the presence of M-CSF (final concentration: 50 ng/ml) and MHP1 (final concentration: 30, 50, or 100 μg/ml) in the C and D groups. Thereafter, 24 hours to 7 days after the start of culture, the A group was cultured in the presence of M-CSF (final concentration: 50 ng/ml), the B group was cultured in the presence of M-CSF (final concentration: 50 ng/ml) and RANKL protein (final concentration: 50 ng/ml), the C group was cultured in the presence of M-CSF (final concentration: 50 ng/ml) and MHP1 (final concentration: 30, 50, or 100 μg/ml), and the D group was cultured in the presence of M-CSF (final concentration: 50 ng/ml), RANKL protein (final concentration: 50 ng/ml), and MHP1 (final concentration: 30, 50, or 100 μg/ml). After culture, the cells were subjected to TRAP staining and nuclear staining according to a standard method.

[3] = system: LPS-administered mice (Balb/c); assay: Septicemia model, LPS intraperitoneal, survival; type: in vivo, mouse; conditions: LPS 10 mg/kg + MHP2 5 mg/kg or 10 mg/kg i.p.; LPS only: 2 of 3 died; FIG. 17
Procedure: To wild-type mice (Balb/c, 5-week-old female mice), LPS (10 mg/kg) was intraperitoneally administered, or LPS (10 mg/kg) and MHP-2 (5 mg/kg or 10 mg/kg) were intraperitoneally administered. After administration, the survival rate of the mice was measured.

[4] = system: THP1 cells; assay: Proinflammatory cytokine secretion inhibition, human macrophage cells; type: cell-based; conditions: MHP6 10-100 μg/ml or MHP1 100 μg/ml, LPS 2 ng/ml, 24 hours, FIG. 14
Procedure: THP1 cells (human-derived macrophage cell line) were cultured in a DMEM medium (+4% FBS) containing MHP6 (human-derived; final concentration: 10, 30, 50, or 100 μg/ml) or MHP1 (mouse-derived; final concentration: 100 μg/ml), and LPS (final concentration: 2 ng/ml) for 24 hours by a standard method. After culture, the concentration of IL-6 in the medium was measured by the ELISA method.

LMVYVVKTSIKIPSSHNLMKGG (listed as Mus musculus) [MHP5]
proinflammatory cytokine secretion-inhibiting activity on the MG6 cells [1]: showed proinflammatory cytokine secretion-inhibiting activity

RANKL: RANKL protein (Recombinant Murin sRANKL Ligand (Cat No. 315-11): produced by Peprotech) (LMVYVVKTSIKIPSSHNLMKGGSTKNWSGN) [reference compound]
differentiation of osteoclasts by the substance itself [2]: promoted

HETSGSVPADYLQLMVYVVKTSIKIPSS (listed as Mus musculus) [MHP3]
proinflammatory cytokine secretion-inhibiting activity on the MG6 cells [1]: did not show proinflammatory cytokine secretion-inhibiting activity

LMVYVVKTSIKIPSSHNLMKGGS (listed as Mus musculus) [MHP12]
proinflammatory cytokine secretion-inhibiting activity on the MG6 cells [1]: showed proinflammatory cytokine secretion-inhibiting activity

LMVYVVKTSIKIPSSHNLMKGGSTKN (listed as Mus musculus) [MHP13]
proinflammatory cytokine secretion-inhibiting activity on the MG6 cells [1]: showed proinflammatory cytokine secretion-inhibiting activity

DYLQLMVYVVKTSIKIPSSHNLMKGGSTKN (listed as Mus musculus) [MHP2]
increase in the amount of IL-6 secretion by LPS ([1]; MG6 cells, peptide 50 or 100 μg/ml, LPS 2 ng/ml, 24 hours, FIG. 1): suppressed | increase in the amount of TNFα secretion by LPS ([1]; MG6 cells, peptide 50 or 100 μg/ml, LPS 2 ng/ml, 24 hours, FIG. 2): suppressed | mice that died [3]: no mouse

LMVYVTKTSIKIPSSHTLMKGGSTKYWSGN (listed as Homo sapiens) [MHP6]
proinflammatory cytokine (IL-6) secretion-inhibiting activity on human-derived macrophage cells [4]: exhibited proinflammatory cytokine secretion-inhibiting activity

LMVYVVKTSIK (listed as Mus musculus) [MHP17]
proinflammatory cytokine secretion-inhibiting activity on the MG6 cells [1]: showed proinflammatory cytokine secretion-inhibiting activity

LMVYVVKTSIKIPSS (listed as Mus musculus) [MHP4]
proinflammatory cytokine secretion-inhibiting activity on the MG6 cells [1]: showed proinflammatory cytokine secretion-inhibiting activity
